Assays:
[1] = molar heat capacity at constant pressure; xn = mol fraction of the nth substance listed; details: 101 kPa, Liquid, Vacuum adiabatic calorimetry
[2] = molar heat capacity at constant pressure; details: 101.33 kPa, Liquid, Vacuum adiabatic calorimetry

OCCOCCOCCO [triethylene glycol] + O
molar heat capacity at constant pressure [J/K/mol], [1]
Details	303.15 K	313.15 K	323.15 K	333.15 K	343.15 K	353.15 K
x1 = 0.2	129.3	131	132.9	135.1	137.2	139.7
x1 = 0.4	184.1	186.3	189	192.1	195.2	198.7
x1 = 0.5	211.3	213.6	216.5	219.8	223.4	227.3
x1 = 0.6	237.8	240.5	243.7	249.7	251.8	256.1
x1 = 0.8	288.3	291.8	295.7	300.3	306	311.3

CC(O)CO (centres undefined) [1,2-propanediol]
[2]
Details	molar heat capacity at constant pressure [J/K/mol]
303.15 K	192.8
313.15 K	197
323.15 K	201.3
333.15 K	206
343.15 K	210.6
353.15 K	215.3

OCCOCCO [diethylene glycol] + O
molar heat capacity at constant pressure [J/K/mol], [1]
Details	303.15 K	313.15 K	323.15 K	333.15 K	343.15 K	353.15 K
x1 = 0.2	111.8	113.5	115.3	117.4	119.3	121.7
x1 = 0.4	148.7	150.7	153.3	155.9	158.7	161.8
x1 = 0.5	167.6	169.9	172.6	175.5	178.7	182.2
x1 = 0.6	184.5	187.1	190.3	193.6	197.3	201.2
x1 = 0.8	217.9	221.2	225	229.1	233.6	238.5

OCCOCCOCCO [triethylene glycol]
[2]
Details	molar heat capacity at constant pressure [J/K/mol]
303.15 K	336.3
313.15 K	339.5
323.15 K	343.1
333.15 K	347.9
343.15 K	353.7
353.15 K	359.3

OCCCOCCCO [4-oxa-1,7-heptanediol]
[2]
Details	molar heat capacity at constant pressure [J/K/mol]
303.15 K	329
313.15 K	335.3
323.15 K	341.5
333.15 K	348.8
343.15 K	355.8
353.15 K	363.8

OCCCOCCCO [4-oxa-1,7-heptanediol] + O
molar heat capacity at constant pressure [J/K/mol], [1]
Details	303.15 K	313.15 K	323.15 K	333.15 K	343.15 K	353.15 K
x1 = 0.2	129.1	130.8	132.7	135	137.1	139.5
x1 = 0.4	181.8	184.9	188.2	191.9	195.5	199.6
x1 = 0.5	207.2	210.9	214.7	219.3	223.5	228.3
x1 = 0.6	231.9	236.2	240.7	245.8	250.8	256.3
x1 = 0.8	279.7	285	290.4	296.6	302.7	309.4

OCCOCCO [diethylene glycol]
[2]
Details	molar heat capacity at constant pressure [J/K/mol]
303.15 K	248.2
313.15 K	251.3
323.15 K	255
333.15 K	259.2
343.15 K	263.8
353.15 K	266.8

CC(O)CO (centres undefined) [1,2-propanediol] + O
molar heat capacity at constant pressure [J/K/mol], [1]
Details	303.15 K	313.15 K	323.15 K	333.15 K	343.15 K	353.15 K
x1 = 0.2	101.9	103	104.3	105.8	107.2	108.8
x1 = 0.4	127	129.4	132.1	134.9	137.7	140.7
x1 = 0.5	138.9	141.9	145.1	148.7	152.1	155.6
x1 = 0.6	150.3	153.9	157.7	161.8	165.8	169.9
x1 = 0.8	172.1	176.4	180.9	185.8	190.6	195.5
